We go through 1 molecule from patent US11001802B2, “Surface of a vessel with polystyrene, nitrogen, oxygen and a static sessile contact angle for attachment and cultivation of cells” (Nunc A/S, priority 2008, dated 2021).

Each structure is given as a SMILES string.

Assay [1] concerns HEK293 cells. The assay can be described thus: HEK293 attachment and growth, culture confluence by IncuCyte Plus (Examples 20, 21). The format is cell-based, human. How it is done: HEK293 cells were maintained in EMEM (Lonza) containing 10% FBS (Lonza). Cells were passaged at 70-80% confluence using Trypsin/EDTA for dissociation, and seeded at c 2.0×10^4 cells/cm^2 in 75-cm^2 flasks with Nunclon Delta™ surface (Thermo Fisher Scientific, Roskilde, Denmark).
EMEM (500 μl) supplemented with 10% FBS containing 1.0, 5.0, 10, 15 or 20 μM Y-27632 (Sigma Chemical Co.), or 0.4, 1.2, 1.6, 2.4 or 2.8 μM H-1152 (Calbiochem, EMD Chemicals Inc., Darmstadt, Germany) was dispensed in Multidish 24-well plates with either Surface 4 or a non-treated (but gamma irradiated; 25 kGy) polystyrene surface. Another 500 μl of EMEM supplemented with 10% FBS and containing HEK293 cells were added to the wells (2.0×10^4 cells/cm^2). The cultures were placed in an IncuCyte™ Plus (Essen Instruments, Michigan, USA) and incubated at 37° C. in a humidified atmosphere of 5% CO2 in air. The IncuCyte™ Plus is an automated imaging platform, configured to fit inside a CO2 incubator, and designed to provide kinetic, non-invasive live cell imaging by acquiring phase contrast images of the cells at user-defined times and locations within the cultures. The primary metric of the instrument is culture confluence, that is, the fraction of the surface that is covered by cells. The HEK293 cells were incubated for 72 hours without manipulations, and images were collected every two hours at 9 positions in triplicate cultures. Culture confluence was determined using the IncuCyte™ Plus software (v. 3.4.1.25966).
EMEM (1.0 ml) supplemented with 10% FBS containing 0.4, 0.8, 1.2, 1.6, 2.0, 2.4 or 2.8 μM H-1152 was dispensed in Multidish 12-well plates with Surface 4. Another 1.0 ml of EMEM supplemented with […] and containing HEK293 cells were added to the wells (4.0×10^4 cells/cm^2). The cultures were placed in an IncuCyte™ Plus, and incubated at 37° C. in a humidified atmosphere of 5% CO2 in air for 42 hours (images were collected every 6 hours). One ml of culture medium was then removed by pipetting, and 1.0 ml EMEM supplemented with 10% FBS containing 0.2, 0.4, 0.6, 0.8, 1.0, 1.2 and 1.4 μM H-1152 was added. The cultures were placed in the IncuCyte™ Plus again, and images were collected every hour over the following 25 hours. Images were collected at 9 positions in triplicate cultures, and culture confluence was determined using the IncuCyte™ Plus software. Images from the IncuCyte™ Plus collected at specific positions in HEK293 cell cultures grown in the absence or presence of H-1152 (0.6 μM) was retrieved and presented as phase-contrast micrographs for the comparison of HEK293 culture morphology at the following time points: start of incubation (0 hours), just before medium change (42 hours), 1 hour after the medium change (43 hours), and, finally, after 52 hours of incubation.

In a further assay the test system is human ES cell line H9. Description: Adhesion and growth of H9 cells passaged as single cells on surface modified plates (Examples 6, 8). In kind it is cell-based. How it is done: Human ES cells of the cell line H9 were grown as single cells according to the methods disclosed in US patent Application LFS5163USPSP, assigned to LifeScan Inc. Cells were passaged by treatment with TrypLE™ Express for five minutes at 37° C., and seeded at 10,000 cells/cm^2 substrate surface.
Initial passaging of H9 human ES cells onto surface modified plates. Adhesion is improved with continuous 10 μM of Y-27632. This is true for the four surface modified plates tested: 2, 3, 4 and 13.
The role of Y-27632 in human ES cell adhesion and cell growth was studied in relation to the surface modified plates. H9 human ES cells were passaged 38 times with collagenase and 50 times with TrypLE™ Express followed by seeding onto Surfaces modified plates 3 or 4 (naïve cells). Alternatively H9 human ES cells passaged 38 times with collagenase and 38 times with Triple Express followed by 9 passages on surface modified plate 3 (Surface 3, acclimated cells), or surface modified plate 4 (Surface 4, acclimated cells). Cells were seeded at a density of 10^4/cm^2 in MEF conditioned media and grown for two days with or without the presence of 10 μM of Y-27632. […] Surface modified plate 4 improved attachment and/or growth of acclimated human ES cells. The cells were followed for a total of 4 days (FIGS. 19 and 20).

Assay [2] has as its system dissociated human embryonic stem cells. The settings on record: from approximately 1%; Wanatabe et al.; cited from earlier work.
In assay [3] the test system is HEK293 cells. The assay can be described thus: HEK293 cell attachment, number of viable cells by LDH activity (Example 19). In kind it is cell-based, human. The following applies: Surface 4 and CellBIND surface, 2.0 and 5.0 μM. The source says:
Human embryonic kidney cells 293 (HEK293, ECACC no. 85120602) were maintained in Eagle's Minimum Essential Medium (EMEM; Lonza, Verviers, Belgium) containing 10% fetal bovine serum (FBS; Lonza). The cells were adapted to Pro293a-CDM medium (Lonza), a chemically defined, serum-free medium optimized for cultivation of adherent HEK293, by gradually and over several passages using the sequential ratios of 3:1, 1:1, 1:3, 1:7, and finally 0:1 of serum-supplemented EMEM and Pro293a-CDM medium. For maintenance and adaptation, HEK293 cells were seeded at 2.0×10^4 cells/cm^2 in 75-cm^2 flasks with Nunclon Delta™ surface (Thermo Fisher Scientific, Roskilde, Denmark) and passaged at 70-80%/confluence using Trypsin/EDTA for dissociation.
Another 100 μl of Pro293a-CDM medium with HEK293 cells was added to the wells (4.0×10^4 cells/cm^2). […]
The number of viable cells in the wells was then determined using a lactate dehydrogenase (LDH) activity kit from Roche, Switzerland. […] The reaction was stopped by adding 50 μl of 1.0 M HCl, and the absorbance at 490 nm was measured in a microplate reader (Genios Pro; Tecan, Austria). The number of cells was calculated using the A490 values from these samples and from standards containing LDH from a known number of cells. […]

As to `C[C@@H](N)[C@H]1CC[C@H](C(=O)Nc2ccncc2)CC1` [Surface Y-27632, Y-27632], in the assay with HEK293 cells [1] (Surface 4, increasing concentration), the “attachment and growth of HEK293 cells” value is “enhances attachment and growth”. Besides, in the assay with HEK293 cells [1] (non-treated polystyrene surface, 10 μM Y-27632, 0.6-1.2 μM H-1152), the “growth and attachment of HEK293 cells” value is “slightly enhanced”. Also, in the assay with human ES cell line H9 (10 μM Y-27632, surface modified plates 3 and 4), the “attachment of naïve single cells” value is “improves attachment”. Moreover, the “attachment of acclimated single cells” value with human ES cell line H9 (10 μM Y-27632, surface modified plates 3 or 4) is “did not improve attachment”. In addition, the “adhesion of H9 cells passaged with TrypLE Express” value in the assay with human ES cell line H9 (continuous 10 μM Y-27632, surface modified plates 2, 3, 4 and 13) is reported as “improved”. The cloning efficiency result in assay [2] is “approximately 27%”. The “attachment of HEK293 cells” value in the assay on HEK293 cells [3] (EMEM with 10% FBS) and in the assay with HEK293 cells [3] (Pro293a-CDM medium) was “enhanced attachment” in each case.
